The text below walks through data of PubChem BioAssay AID248 (DTP/NCI, 2004).

SMILES strings stand for the structures. Values joined by “and” are separate entries in the source; they are usually repeats but may differ in a detail not shown here. Equal entries are not always repeated. Toxic doses and inconclusive results are not listed.

This assay has as its system L1210 leukemia ip in BDF1 mice, survival T/C. The assay can be described thus: NCI In Vivo Anticancer Drug Screen. Data for tumor model L1210 Leukemia (intraperitoneal) in B6D2F1 (BDF1) mice. The settings on record: endpoint: mean survival time, higher = longer survival. The method in brief: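 Each compound was tested against a transplantable tumor grown in mice. The endpoint was survival, with treated animals benchmarked against vehicle controls as a simple ratio.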

Setting [1] is: dose: 100.0 mg/kg/injection, schedule: Q01DX009 (ip), vehicle: saline with Tween-80.
[2] abbreviates: dose: 100.0 mg/kg/injection, schedule: Q04DX003 (ip), vehicle: saline with Tween-80.
Setting [3] is: dose: 200.0 mg/kg/injection, schedule: Q01DX009 (ip), vehicle: saline with Tween-80.
Where [4] appears, read: dose: 200.0 mg/kg/injection, schedule: Q04DX003 (ip), vehicle: saline with Tween-80.
Where [5] appears, read: dose: 400.0 mg/kg/injection, schedule: Q04DX003 (ip), vehicle: saline with Tween-80.
The mark [6] stands for this setting: dose: 100.0 mg/kg/injection, schedule: Q04DX003 (ip), vehicle: Klucel (hydroxypropylcellulose) (HPC).
Setting [7] is: dose: 200.0 mg/kg/injection, schedule: Q04DX003 (ip), vehicle: Klucel (hydroxypropylcellulose) (HPC).
The mark [8] stands for this setting: dose: 100.0 mg/kg/injection, schedule: Q01DX009 (ip), vehicle: Klucel (hydroxypropylcellulose) (HPC).
[9] abbreviates: dose: 200.0 mg/kg/injection, schedule: Q01DX009 (ip), vehicle: Klucel (hydroxypropylcellulose) (HPC).
Where [10] appears, read: dose: 100.0 mg/kg/injection, schedule: Q04DX003 (ip), vehicle: saline.
Where [11] appears, read: dose: 200.0 mg/kg/injection, schedule: Q04DX003 (ip), vehicle: saline.
The mark [12] stands for this setting: dose: 400.0 mg/kg/injection, schedule: Q04DX003 (ip), vehicle: saline.
[13] abbreviates: dose: 100.0 mg/kg/injection, schedule: Q04DX002 (ip), vehicle: saline with Tween-80.
The mark [14] stands for this setting: dose: 50.0 mg/kg/injection, schedule: Q01DX009 (ip), vehicle: saline with Tween-80.

As for `Brc1cc(Br)c(I)c(Br)c1`, the T/C by setting is: under setting [1], 102 % of control; under setting [2], 96 % of control; under setting [3], 101 % of control; under setting [4], 108 % of control; (dose: 400.0 mg/kg/injection, schedule: Q01DX009 (ip), vehicle: saline with Tween-80) 101 % of control; under setting [5], 103 % of control.

Take `O=[N+]([O-])OCc1c(Cl)nc(Cl)c(Cl)c1Cl`: the T/C was 103 % of control (dose: 20.0 mg/kg/injection, schedule: Q01DX009 (ip), vehicle: Klucel (hydroxypropylcellulose) (HPC)); 92 % of control (dose: 40.0 mg/kg/injection, schedule: Q01DX009 (ip), vehicle: Klucel (hydroxypropylcellulose) (HPC)); 92 % of control under setting [6]; 100 % of control under setting [7].

For the compound `c1ccc2c(c1)Cc1c(-c3ccncc3)n[nH]c1-2`, the T/C by setting is: under setting [2], 93 % of control; under setting [4], 96 % of control; under setting [5], 86 % of control.

Consider `CCOC(=O)C(C1=NC(C)(C)CC(C)O1)C1CCCCC1` (configuration not stated), for which the T/C was 115 % of control (dose: 100.0 mg/kg/injection, schedule: Q04DX003 (ip), vehicle: saline sonified); 102 % of control (dose: 200.0 mg/kg/injection, schedule: Q04DX003 (ip), vehicle: saline sonified); 108 % of control (dose: 400.0 mg/kg/injection, schedule: Q04DX003 (ip), vehicle: saline sonified).

In the case of `O=C(OCCl)c1ccc(Cl)c(Cl)c1`, the T/C (dose: 25.0 mg/kg/injection, schedule: Q04DX003 (ip), vehicle: Klucel (hydroxypropylcellulose) (HPC)) was 95 % of control; the T/C (dose: 50.0 mg/kg/injection, schedule: Q04DX003 (ip), vehicle: Klucel (hydroxypropylcellulose) (HPC)) is 98 % of control; the T/C under setting [6] is 101 % of control.

Consider `Ic1ncnc2nc[nH]c12`, for which the T/C is, setting by setting: (dose: 56.0 mg/kg/injection, schedule: Q01DX Z (ip), vehicle: carboxymethylcellulose (CMC)) 104 % of control; (dose: 62.5 mg/kg/injection, schedule: Q01DX Z (ip), vehicle: carboxymethylcellulose (CMC)) 115 % of control; under setting [8], 118 % of control; (dose: 100.0 mg/kg/injection, schedule: Q04DX003 (ip), vehicle: other) 106 % of control; (dose: 112.0 mg/kg/injection, schedule: Q01DX Z (ip), vehicle: carboxymethylcellulose (CMC)) 121 % of control; (dose: 125.0 mg/kg/injection, schedule: Q01DX Z (ip), vehicle: carboxymethylcellulose (CMC)) 110 % of control. Further, the T/C (dose: 132.0 mg/kg/injection, schedule: Q01DX009 (ip), vehicle: saline) was 122 % of control; the T/C under setting [9] was 119 % of control; the T/C (dose: 200.0 mg/kg/injection, schedule: Q01DX009 (ip), vehicle: saline) was 120 % of control; the T/C (dose: 200.0 mg/kg/injection, schedule: Q04DX003 (ip), vehicle: other) was 103 % of control; the T/C (dose: 300.0 mg/kg/injection, schedule: Q01DX009 (ip), vehicle: Klucel (hydroxypropylcellulose) (HPC)) is 151 % of control; the T/C (dose: 400.0 mg/kg/injection, schedule: Q04DX003 (ip), vehicle: other) is 103 % of control.

In the case of `O=C(O)CCCCSc1ncnc2nc[nH]c12`, the T/C (dose: 15.0 mg/kg/injection, schedule: Q01DX009 (ip), vehicle: saline with Tween-80) was 106 % of control; the T/C (dose: 15.0 mg/kg/injection, schedule: Q01DX009 (oral), vehicle: saline with Tween-80) was 98 % of control; the T/C (dose: 30.0 mg/kg/injection, schedule: Q01DX009 (ip), vehicle: saline with Tween-80) is 103 % of control; the T/C (dose: 30.0 mg/kg/injection, schedule: Q01DX009 (oral), vehicle: saline with Tween-80) is 86 % of control; the T/C (dose: 60.0 mg/kg/injection, schedule: Q01DX009 (ip), vehicle: saline with Tween-80) is 92 % of control; the T/C (dose: 60.0 mg/kg/injection, schedule: Q01DX009 (oral), vehicle: saline with Tween-80) is 95 % of control. The T/C by setting is: under setting [8], 113 % of control; under setting [6], 107 % of control; under setting [2], 103 % of control; (dose: 120.0 mg/kg/injection, schedule: Q01DX009 (ip), vehicle: saline with Tween-80) 123 % of control; (dose: 120.0 mg/kg/injection, schedule: Q01DX009 (oral), vehicle: saline with Tween-80) 109 % of control; under setting [9], 101 % of control. Further, the T/C under setting [7] is 102 % of control; the T/C under setting [4] was 104 % of control; the T/C (dose: 240.0 mg/kg/injection, schedule: Q01DX009 (ip), vehicle: saline with Tween-80) is 105 % of control; the T/C (dose: 240.0 mg/kg/injection, schedule: Q01DX009 (oral), vehicle: saline with Tween-80) is 91 % of control; the T/C (dose: 400.0 mg/kg/injection, schedule: Q01DX009 (ip), vehicle: Klucel (hydroxypropylcellulose) (HPC)) was 116 % of control; the T/C (dose: 400.0 mg/kg/injection, schedule: Q04DX003 (ip), vehicle: Klucel (hydroxypropylcellulose) (HPC)) is 115 % of control. In addition, the T/C is 103 % of control under setting [5]; 118 % of control (dose: 480.0 mg/kg/injection, schedule: Q01DX009 (ip), vehicle: saline with Tween-80); 100 % of control (dose: 480.0 mg/kg/injection, schedule: Q01DX009 (oral), vehicle: saline with Tween-80); 100 % of control (dose: 720.0 mg/kg/injection, schedule: Q01DX009 (oral), vehicle: saline with Tween-80).

In the case of `Cc1ccc(NN)c(Br)c1`, the T/C by setting is: under setting [10], 104 % of control; under setting [11], 106 % of control; under setting [12], 101 % of control.

Turning to `O=C(Cc1ccccc1)Nc1cc(C(F)(F)F)ccc1Cl`, the T/C reads like this: (dose: 100.0 mg/kg/injection, schedule: Q04DX002 (ip), vehicle: saline) 100 % of control; (dose: 200.0 mg/kg/injection, schedule: Q04DX002 (ip), vehicle: saline) 93 % of control; (dose: 400.0 mg/kg/injection, schedule: Q04DX002 (ip), vehicle: saline) 100 % of control.

In the case of `CN(C)CCC(N)c1cccc2ccccc12` (configuration not stated), the T/C was 91 % of control (dose: 25.0 mg/kg/injection, schedule: Q04DX002 (ip), vehicle: saline with Tween-80); 116 % of control (dose: 50.0 mg/kg/injection, schedule: Q04DX002 (ip), vehicle: saline with Tween-80); 98 % of control under setting [13].

For the compound `CC(C)(C)NC(=O)Nc1cccc2c(O)cccc12`, the T/C by setting is: under setting [13], 95 % of control; (dose: 200.0 mg/kg/injection, schedule: Q04DX002 (ip), vehicle: saline with Tween-80) 95 % of control; (dose: 400.0 mg/kg/injection, schedule: Q04DX002 (ip), vehicle: saline with Tween-80) 98 % of control.

With `O=C(OCCCl)OCCCl`, the T/C (dose: 25.0 mg/kg/injection, schedule: Q01DX009 (ip), vehicle: saline with Tween-80) was 98 % of control; the T/C under setting [14] is 103 % of control and 91 % of control; the T/C under setting [1] was 93 % of control; the T/C under setting [3] was 92 % of control.

Turning to `O=C(NOCc1cscn1)NC1CCCCC1`, the T/C (dose: 75.0 mg/kg/injection, schedule: Q01DX001 (ip), vehicle: saline) was 98 % of control.

For the compound `NC1=CC(=O)CCC1`, the T/C is 103 % of control (dose: 100.0 mg/kg/injection, schedule: Q01DX001 (ip), vehicle: saline); 100 % of control (dose: 200.0 mg/kg/injection, schedule: Q01DX001 (ip), vehicle: saline); 97 % of control (dose: 400.0 mg/kg/injection, schedule: Q01DX001 (ip), vehicle: saline).

For `O=C(N/N=C/c1cccc(F)c1)c1ccccc1Cl`, the T/C was 91 % of control under setting [14], 102 % of control under setting [1] and 87 % of control under setting [3].

Turning to `CNC(=O)CCC(=O)NC`, the T/C reads like this: (dose: 75.0 mg/kg/injection, schedule: Q04DX003 (ip), vehicle: saline) 95 % of control; under setting [10], 100 % of control; (dose: 150.0 mg/kg/injection, schedule: Q04DX003 (ip), vehicle: saline) 98 % of control; under setting [11], 102 % of control; (dose: 300.0 mg/kg/injection, schedule: Q04DX003 (ip), vehicle: saline) 95 % of control; under setting [12], 111 % of control.
